Reference: the NIST ThermoML archive (doi:10.1016/j.tca.2012.01.007)

Experiment: wn = mass fraction of the nth substance listed
Conditions: 101 kPa, Liquid, Vibrating tube method

OCCNCCO [diethanolamine] + CCO
Conditions | mass density [kg/m3]
278.14 K, w1 = 0.1 | 827.791
278.14 K, w1 = 1 | 1107.05
278.15 K, w1 = 0.1999 | 854.007
278.15 K, w1 = 0.3 | 881.862
278.15 K, w1 = 0.3999 | 910.002
278.15 K, w1 = 0.5001 | 939.811
278.15 K, w1 = 0.5998 | 970.814
278.15 K, w1 = 0.7002 | 1004.37
278.15 K, w1 = 0.8001 | 1037.46
278.15 K, w1 = 0.8417 | 1051.46
278.15 K, w1 = 0.8997 | 1071.67
283.14 K, w1 = 0.1 | 823.639
283.14 K, w1 = 0.1999 | 849.953
283.14 K, w1 = 0.3 | 877.917
283.14 K, w1 = 1 | 1103.88
283.15 K, w1 = 0.3999 | 906.254
283.15 K, w1 = 0.5001 | 936.053
283.15 K, w1 = 0.5998 | 967.135
283.15 K, w1 = 0.7002 | 1000.78
283.15 K, w1 = 0.8001 | 1034
283.15 K, w1 = 0.8417 | 1048.09
283.15 K, w1 = 0.8997 | 1068.38
293.14 K, w1 = 0.1 | 815.297
293.14 K, w1 = 0.1999 | 841.801
293.14 K, w1 = 0.3 | 869.969
293.14 K, w1 = 0.5998 | 959.776
293.14 K, w1 = 0.8997 | 1061.73
293.15 K, w1 = 0.3999 | 898.495
293.15 K, w1 = 0.5001 | 928.504
293.15 K, w1 = 0.7002 | 993.608
293.15 K, w1 = 0.8001 | 1027.03
293.15 K, w1 = 0.8417 | 1041.24
293.15 K, w1 = 1 | 1097.51
303.14 K, w1 = 0.1 | 806.876
303.14 K, w1 = 0.3 | 861.949
303.14 K, w1 = 1 | 1091.06
303.15 K, w1 = 0.1999 | 833.564
303.15 K, w1 = 0.3999 | 890.674
303.15 K, w1 = 0.5001 | 920.9
303.15 K, w1 = 0.5998 | 952.376
303.15 K, w1 = 0.7002 | 986.404
303.15 K, w1 = 0.8001 | 1020.01
303.15 K, w1 = 0.8417 | 1034.3
303.15 K, w1 = 0.8997 | 1054.97
313.14 K, w1 = 0.1 | 798.332
313.14 K, w1 = 0.3 | 853.824
313.14 K, w1 = 1 | 1084.49
313.15 K, w1 = 0.1999 | 825.235
313.15 K, w1 = 0.3999 | 882.762
313.15 K, w1 = 0.5001 | 913.212
313.15 K, w1 = 0.5998 | 944.908
313.15 K, w1 = 0.7002 | 979.15
313.15 K, w1 = 0.8001 | 1012.95
313.15 K, w1 = 0.8417 | 1027.32
313.15 K, w1 = 0.8997 | 1048.11
323.14 K, w1 = 0.1 | 789.624
323.14 K, w1 = 0.1999 | 816.75
323.14 K, w1 = 0.3 | 845.563
323.14 K, w1 = 0.7002 | 971.82
323.14 K, w1 = 1 | 1077.78
323.15 K, w1 = 0.3999 | 874.726
323.15 K, w1 = 0.5998 | 937.339
323.15 K, w1 = 0.8001 | 1005.75
323.15 K, w1 = 0.8417 | 1020.28
323.15 K, w1 = 0.8997 | 1041.21
323.16 K, w1 = 0.5001 | 905.4
333.14 K, w1 = 0.1 | 780.704
333.14 K, w1 = 0.1999 | 808.075
333.14 K, w1 = 0.3 | 837.129
333.14 K, w1 = 1 | 1071
333.15 K, w1 = 0.3999 | 866.54
333.15 K, w1 = 0.5001 | 897.474
333.15 K, w1 = 0.5998 | 929.643
333.15 K, w1 = 0.7002 | 964.37
333.15 K, w1 = 0.8001 | 998.264
333.15 K, w1 = 0.8417 | 1013.15
333.15 K, w1 = 0.8997 | 1034.23
343.14 K, w1 = 0.1 | 771.521
343.14 K, w1 = 0.1999 | 799.163
343.14 K, w1 = 0.3 | 828.477
343.14 K, w1 = 0.5001 | 889.372
343.14 K, w1 = 0.8997 | 1027.15
343.14 K, w1 = 1 | 1064.14
343.15 K, w1 = 0.3999 | 858.164
343.15 K, w1 = 0.5998 | 921.798
343.15 K, w1 = 0.7002 | 956.784
343.15 K, w1 = 0.8001 | 990.826
343.15 K, w1 = 0.8417 | 1005.84
348.14 K, w1 = 0.1 | 766.805
348.14 K, w1 = 0.1999 | 794.6
348.14 K, w1 = 0.3 | 824.049
348.14 K, w1 = 0.5998 | 917.813
348.14 K, w1 = 1 | 1060.68
348.15 K, w1 = 0.3999 | 853.893
348.15 K, w1 = 0.5001 | 885.244
348.15 K, w1 = 0.7002 | 952.934
348.15 K, w1 = 0.8001 | 987.083
348.15 K, w1 = 0.8417 | 1001.85
348.15 K, w1 = 0.8997 | 1023.57

OCCNCCO [diethanolamine] + O
Conditions | mass density [kg/m3]
283.14 K, w1 = 1 | 1103.88
283.15 K, w1 = 0.1007 | 1011.98
283.15 K, w1 = 0.2002 | 1024.98
283.15 K, w1 = 0.2997 | 1038.45
283.15 K, w1 = 0.3999 | 1052.36
283.15 K, w1 = 0.5003 | 1065.24
283.15 K, w1 = 0.6024 | 1077.85
283.15 K, w1 = 0.6999 | 1088.2
283.15 K, w1 = 0.8004 | 1096.55
283.15 K, w1 = 0.8534 | 1099.73
283.15 K, w1 = 0.8995 | 1101.58
283.16 K, w1 = 0.9316 | 1102.57
283.16 K, w1 = 0.9591 | 1103.24
293.14 K, w1 = 0.8995 | 1095.4
293.15 K, w1 = 0.1007 | 1010.01
293.15 K, w1 = 0.2002 | 1022.35
293.15 K, w1 = 0.2997 | 1035.07
293.15 K, w1 = 0.3999 | 1048.19
293.15 K, w1 = 0.5003 | 1060.32
293.15 K, w1 = 0.6024 | 1072.33
293.15 K, w1 = 0.6999 | 1082.23
293.15 K, w1 = 0.8004 | 1090.42
293.15 K, w1 = 0.8534 | 1093.59
293.15 K, w1 = 0.9316 | 1096.37
293.15 K, w1 = 0.9591 | 1096.98
293.15 K, w1 = 1 | 1097.51
303.14 K, w1 = 0.6024 | 1066.59
303.14 K, w1 = 0.6999 | 1076.15
303.14 K, w1 = 0.8995 | 1089.06
303.14 K, w1 = 1 | 1091.06
303.15 K, w1 = 0.2002 | 1018.95
303.15 K, w1 = 0.2997 | 1031.08
303.15 K, w1 = 0.3999 | 1043.56
303.15 K, w1 = 0.8004 | 1084.12
303.15 K, w1 = 0.8534 | 1087.26
303.15 K, w1 = 0.9316 | 1090.01
303.15 K, w1 = 0.9591 | 1090.59
303.16 K, w1 = 0.1007 | 1007.1
303.16 K, w1 = 0.5003 | 1055.09
313.14 K, w1 = 0.6024 | 1060.6
313.14 K, w1 = 0.8004 | 1077.72
313.14 K, w1 = 1 | 1084.49
313.15 K, w1 = 0.1007 | 1003.4
313.15 K, w1 = 0.2002 | 1014.87
313.15 K, w1 = 0.3999 | 1038.5
313.15 K, w1 = 0.6999 | 1069.91
313.15 K, w1 = 0.8534 | 1080.78
313.15 K, w1 = 0.8995 | 1082.55
313.15 K, w1 = 0.9316 | 1083.49
313.15 K, w1 = 0.9591 | 1084.06
313.16 K, w1 = 0.2997 | 1026.54
313.16 K, w1 = 0.5003 | 1049.55
323.14 K, w1 = 0.5003 | 1043.69
323.14 K, w1 = 0.6024 | 1054.36
323.14 K, w1 = 1 | 1077.78
323.15 K, w1 = 0.1007 | 999.014
323.15 K, w1 = 0.2002 | 1010.18
323.15 K, w1 = 0.6999 | 1063.49
323.15 K, w1 = 0.8004 | 1071.18
323.15 K, w1 = 0.8534 | 1074.21
323.15 K, w1 = 0.8995 | 1075.95
323.15 K, w1 = 0.9316 | 1076.86
323.15 K, w1 = 0.9591 | 1077.4
323.16 K, w1 = 0.2997 | 1021.47
323.16 K, w1 = 0.3999 | 1033.03
333.14 K, w1 = 0.8995 | 1069.24
333.14 K, w1 = 1 | 1071
333.15 K, w1 = 0.1007 | 994.007
333.15 K, w1 = 0.2002 | 1004.93
333.15 K, w1 = 0.2997 | 1015.93
333.15 K, w1 = 0.3999 | 1027.17
333.15 K, w1 = 0.5003 | 1037.44
333.15 K, w1 = 0.6024 | 1047.86
333.15 K, w1 = 0.6999 | 1056.8
333.15 K, w1 = 0.8534 | 1067.5
333.15 K, w1 = 0.9316 | 1070.14
333.15 K, w1 = 0.9591 | 1070.66
333.16 K, w1 = 0.8004 | 1064.48
343.14 K, w1 = 0.2997 | 1009.93
343.14 K, w1 = 0.6024 | 1041.1
343.14 K, w1 = 0.6999 | 1049.92
343.14 K, w1 = 0.8995 | 1062.39
343.14 K, w1 = 1 | 1064.14
343.15 K, w1 = 0.1007 | 988.445
343.15 K, w1 = 0.2002 | 999.169
343.15 K, w1 = 0.3999 | 1020.9
343.15 K, w1 = 0.5003 | 1030.89
343.15 K, w1 = 0.8534 | 1060.63
343.15 K, w1 = 0.9316 | 1063.3
343.15 K, w1 = 0.9591 | 1063.82
343.16 K, w1 = 0.8004 | 1057.6
353.14 K, w1 = 0.2997 | 1003.5
353.14 K, w1 = 0.5003 | 1024.01
353.14 K, w1 = 0.6999 | 1042.78
353.14 K, w1 = 0.8995 | 1055.38
353.14 K, w1 = 0.9316 | 1056.33
353.14 K, w1 = 0.9591 | 1056.87
353.15 K, w1 = 0.1007 | 982.774
353.15 K, w1 = 0.2002 | 992.938
353.15 K, w1 = 0.3999 | 1014.25
353.15 K, w1 = 0.6024 | 1034.05
353.15 K, w1 = 0.8004 | 1050.51
353.15 K, w1 = 0.8534 | 1053.58
353.15 K, w1 = 1 | 1056.83
